Experimental data reported in patent US20250326865A1, “C-MET PROTEIN-BINDING PEPTIDE COMPLEX” (PeptiDream Inc., priority 2021, published 2025).
Starred links: 1 amine or outer side, 2 acyl side, 3 side chain; linkers in the order of their positions; H or OH if unused. Positions of bridges follow the written chain, without caps; N, C: chain ends. Non-standard residues stand in square brackets, D forms with d. Residues, ends and D or L forms follow the SMILES beside them. Primed or numbered codes have the meaning given here. Chains are numbered I, II in the order given. No end group written: not given here. X1 = O=C(OCCOCCOCCOCCOCCOCCOCCOCCOCCOCCOCCOCCOC(=O)[*:2])[*:1]; NMeF = CN[C@@H](Cc1ccccc1)C(=O)O; Ahp(2) = CCCCC[C@H](N)C(=O)O; NMeC = CN[C@@H](CS)C(=O)O; Ahp′ = not defined here

How the values were obtained:
Format in all cases: cell-based
HGF R = molecular target: T1, HGF R (Homo sapiens, UniProt P08581); assay: Human Phospho-RTK array assay in A431 cells; details: 10 minutes of stimulation, 2 nM complex, 7.8 nM HGF
T1 construct: endogenous in cells; host or cells: A431
T1 sequence (P08581 25-1390): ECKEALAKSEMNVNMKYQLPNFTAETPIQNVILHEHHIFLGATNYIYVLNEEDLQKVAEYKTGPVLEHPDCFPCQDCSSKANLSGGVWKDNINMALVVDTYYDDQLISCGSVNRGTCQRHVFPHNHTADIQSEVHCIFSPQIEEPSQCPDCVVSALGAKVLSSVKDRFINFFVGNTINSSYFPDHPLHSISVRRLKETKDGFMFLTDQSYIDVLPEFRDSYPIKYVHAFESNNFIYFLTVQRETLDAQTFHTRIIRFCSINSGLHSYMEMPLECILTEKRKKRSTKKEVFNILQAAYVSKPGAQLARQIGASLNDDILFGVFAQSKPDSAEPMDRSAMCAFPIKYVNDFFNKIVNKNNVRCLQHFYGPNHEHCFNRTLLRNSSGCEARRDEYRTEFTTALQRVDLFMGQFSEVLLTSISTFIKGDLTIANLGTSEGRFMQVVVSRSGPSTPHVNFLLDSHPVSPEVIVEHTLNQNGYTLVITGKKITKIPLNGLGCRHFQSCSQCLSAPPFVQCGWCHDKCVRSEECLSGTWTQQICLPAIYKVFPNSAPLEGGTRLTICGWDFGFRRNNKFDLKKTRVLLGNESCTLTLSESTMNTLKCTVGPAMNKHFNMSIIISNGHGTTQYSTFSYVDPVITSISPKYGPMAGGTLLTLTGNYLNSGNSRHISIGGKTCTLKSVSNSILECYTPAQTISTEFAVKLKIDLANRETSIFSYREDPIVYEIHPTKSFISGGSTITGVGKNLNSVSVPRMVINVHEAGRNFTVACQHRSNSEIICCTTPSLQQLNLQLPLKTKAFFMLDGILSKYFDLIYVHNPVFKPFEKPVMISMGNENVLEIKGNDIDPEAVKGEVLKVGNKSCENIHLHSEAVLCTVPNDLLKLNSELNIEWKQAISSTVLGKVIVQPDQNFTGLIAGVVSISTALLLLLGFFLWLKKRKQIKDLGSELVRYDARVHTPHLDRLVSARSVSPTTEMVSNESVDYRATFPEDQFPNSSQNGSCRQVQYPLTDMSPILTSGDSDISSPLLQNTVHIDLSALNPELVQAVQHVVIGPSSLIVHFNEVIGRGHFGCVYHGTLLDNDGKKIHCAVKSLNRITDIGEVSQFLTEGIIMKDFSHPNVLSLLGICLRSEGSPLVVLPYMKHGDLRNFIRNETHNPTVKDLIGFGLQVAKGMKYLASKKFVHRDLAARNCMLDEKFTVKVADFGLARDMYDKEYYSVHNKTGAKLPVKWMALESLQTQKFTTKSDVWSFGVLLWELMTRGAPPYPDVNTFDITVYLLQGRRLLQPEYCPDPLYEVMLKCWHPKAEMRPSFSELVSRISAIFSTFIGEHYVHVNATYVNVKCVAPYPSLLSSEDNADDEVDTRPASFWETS
Procedure: A431 cells were cultured in DMEM high glucose, GlutaMAX (registered trademark) Supplement, pyruvate (Thermo Fisher Scientific), containing 10% FBS (Gibco). After cells were detached using Accutase (registered trademark) (Innovative cell technologies), they were seeded into a 6-well plate at 1000000 cells per well and cultured overnight.
The next day, for starvation, the culture medium was changed to DMEM high glucose, GlutaMAX (registered trademark) Supplement, pyruvate (Thermo Fisher Scientific), containing an assay medium (0.1% BSA (Sigma-Aldrich)), and the cells were cultured overnight. Then, 7.8 nM Recombinant Human HGF Protein (R&D systems) or 2 nM complex (GFs_c-Met 00014336-PEG9 dimer; peptide complex No. 51 in Table 4) of peptide (SEQ ID NO: 34) synthesized in Example 2 and a linker (SEQ ID NO: 36) was added, and after 10 minutes of stimulation, cells were lysed in a Lysis Buffer provided in the Proteome Profiler Human Phospho-RTK Array Kit (R & D systems). Thereafter, the procedure was performed according to the protocol of the kit, and chemiluminescent signals by WesternSure (registered trademark) PREMIUM chemiluminescent substrate kit (LI-COR) were detected using C-DiGit (registered trademark) (Scrum).
In (2) in FIG. 5, a is the result of no addition, b is of addition of HGF, and c of addition of the peptide complex.

[1] = tested on: Normal human umbilical vein vascular endothelial cells (HUVECs); details: HUVEC, cultured for 2 days after addition, FIG. 2; read-out: EC50 (HUVEC cell proliferation)
Procedure: In order to evaluate the biological activity of the peptide complex of the present invention, the cell proliferation inducing activity was verified. Normal human umbilical vein vascular endothelial cells (HUVECs) were cultured using HuMedia-EG2 (KURABO INDUSTRIES LTD.). After cells were detached using Accutase (Innovative cell technologies), they were resuspended in a Medium without serum or growth factors (Cell system) containing 5% FBS (MBL), seeded into a 96-well plate at 10000 cells per well, and cultured overnight. The next day, a complex (GFs_c-Met-00014336-PEG13 dimer; peptide complex no. 49 in Table 4) of the peptide (SEQ ID NO: 34) synthesized in Example 2 and a linker (SEQ ID NO: 37), or Recombinant Human HGF Protein (R&D systems) as a control was added and cultured for another 2 days. The medium was then removed and the cell count was determined quantitatively using the CellTiter-Glo (registered trademark) Luminescent Cell Viability Assay reagent (Promega) according to the protocol provided. A SpectraMax (registered trademark) Paradigm (registered trademark) multimode microplate reader (Molecular Devices, LLC.) was used for detection. The obtained signal value was analyzed by GraphPad Prism, and EC50 was calculated.

[2] = tested on: Renal proximal tubule epithelial cells (RPTEC); assay: Evaluation of tube formation in collagen gel
Procedure: Renal proximal tubule epithelial cells (RPTEC) were cultured in a growth medium (Renal Epithelial Cell Basal Medium (REBM)+0.5% FBS+2.4 mM L-Alanyl-L-Glutamine+10 nM Triiodothyronine+10 ng/mL rh EGF+100 ng/mL Hydrocortisone Hemisuccinate+5 μg/mL rh Insulin+1 μM Epinephrine+5 μg/mL Transferrin) (ATCC). The cells were detached using Trypsin-EDTA, and then resuspended in an assay medium (REBM+0.5% FBS+2.4 mM L-Alanyl-L-Glutamine+10 nM Triiodothyronine+100 ng/mL Hydrocortisone Hemisuccinate+1 μM Epinephrine+5 μg/mL Transferrin+1.8 mM CaCl2).
RPTECs were resuspended in a mixture of Cellmatrix (registered trademark) Type I-A (Nitta Gelatin Inc.), concentrated culture solution (Nitta Gelatin Inc.) and a reconstitution buffer solution (Nitta Gelatin Inc.) on ice according to the instructions. […]
To the assay medium, 2 nM HGF, 1.6 nM EGF or a complex GFs_c-Met-00014336-PEG13 dimer; peptide complex No. 49 in Table 4) of a peptide (SEQ ID NO: 34) synthesized in Example 2 and a linker (SEQ ID NO: 37) at 0.08, 0.4, 2, and 10 nM, was added and 400 μL of each resultant mixture was added to each well of 48-well plate to which the gelated suspension had been added as mentioned above. […] The presence or absence of tube formation was observed and evaluated using a phase-contrast microscope on the third day and the eighth day of the start of the culturing.

c-Met = molecular target: T2, c-Met (Homo sapiens, UniProt P08581); assay: Phospho-c-Met AlphaLISA assay (c-Met agonist activity) in A431 cells; details: phospho-c-Met AlphaLISA, A431 cells, FIG. 1; read-out: EC50 (c-Met agonist activity)
T2 construct: endogenous in cells; host or cells: A431 (human)
T2 sequence (P08581 25-1390): as above
Summary of the method: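 Human A431 cells serum-starved overnight in 0.1% BSA medium, then stimulated 15 min with peptide complex, with HGF as control. Phospho-c-Met (Tyr1234/1235) in lysates measured by AlphaLISA SureFire Ultra. C50 is the peptide concentration giving 50% of the HGF-induced signal.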

| EC50 (c-Met) [nM] | Compound | specific phosphorylation pattern of receptor tyrosine kinases (HGF R) | EC50 [1] [nM] | tube formation ([2]; RPTEC in collagen gel, 0.08-10 nM, third and eighth day, phase-contrast microscope) | tube formation with branching ([2]; RPTEC, 10 nM complex, eighth day (f of FIG. 4)) |
| --- | --- | --- | --- | --- | --- |
|  | 51 ({CH2CO}-[NMeF]TAVS[NMeF]DED[Ahp′]PRWS[NMeC]; thioether N-15 (inferred); not fully specified; reading uncertain; also: conjugated moiety via linker) [compound 51] | Only HGF R was specifically phosphorylated |  |  |  |
|  | CCCCC[C@@H]1NC(=O)[C@H](CC(=O)O)NC(=O)[C@H](CCC(=O)O)NC(=O)[C@H](CC(=O)O)NC(=O)[C@H](Cc2ccccc2)N(C)C(=O)[C@H](CO)NC(=O)[C@H](C(C)C)NC(=O)[C@H](C)NC(=O)[C@H]([C@@H](C)O)NC(=O)[C@H](Cc2ccccc2)N(C)C(=O)CSC[C@@H](C(=O)NCC(=O)N[C@@H](CCCCNC(=O)OCCOCCOCCOCCOCCOCCOCCOCCOCCOCCOCCOCCOC(=O)NCCCC[C@H](NC(=O)CNC(=O)[C@@H]2CSCC(=O)N(C)[C@@H](Cc3ccccc3)C(=O)N[C@@H]([C@@H](C)O)C(=O)N[C@@H](C)C(=O)N[C@@H](C(C)C)C(=O)N[C@@H](CO)C(=O)N(C)[C@@H](Cc3ccccc3)C(=O)N[C@@H](CC(=O)O)C(=O)N[C@@H](CCC(=O)O)C(=O)N[C@@H](CC(=O)O)C(=O)N[C@@H](CCCCC)C(=O)N3CCC[C@H]3C(=O)N[C@@H](CCCNC(=N)N)C(=O)N[C@@H](Cc3c[nH]c4ccccc34)C(=O)N[C@@H](CO)C(=O)N2C)C(N)=O)C(N)=O)N(C)C(=O)[C@H](CO)NC(=O)[C@H](Cc2c[nH]c3ccccc23)NC(=O)[C@H](CCCNC(=N)N)NC(=O)[C@@H]2CCCN2C1=O [compound 49] (I: {CH2CO}-[NMeF]TAVS[NMeF]DED[Ahp(2)]PRWS[NMeC]GK-NH2 / II: {CH2CO}-[NMeF]TAVS[NMeF]DED[Ahp(2)]PRWS[NMeC]GK-NH2; linker I:17-II:17 via X1 (inferred); thioether I:N-I:15, II:N-II:15 (inferred); C-terminus assumed) |  | 0.55 | promoted tube formation | not only tube formation but also branch formation was promoted |
| 0.66 | HGF: Recombinant Human HGF Protein (R&D systems), hepatocyte growth factor, used as a control | Only HGF R was specifically phosphorylated | 0.37 |  |  |
